≈ marks a conversion by molar mass, not a printed value. Read-outs that look alike come from different tables or passages of the source.

What is called solubility is the dissolved amount per volume that the medium holds. In general, logP refers to the decadic logarithm of the partition coefficient of the neutral form, usually between octanol and water. The term pKa denotes the negative logarithm of the acid dissociation constant.

The nature of series [1]: CheqSol potentiometric intrinsic solubility and supersaturation. The settings on record: for pH range in which the drug precipitated from solution: CheqSol titration from pH 12.0 to low pH, with and without excipients; for time of supersaturation: with hydrophilic excipients; for ts, time of supersaturation: drug:excipient 1:1; for ts, time of supersaturation / solubility: 0.17 M KCl; for Rs, supersaturation ratio: Rs = Cmax/S0, S0 of the API in a medium without excipients; for solubility: aqueous titration solution, without excipient. Format: physicochemical. The text has this:
For the determination of the intrinsic solubility using the potentiometric method, two events must happen: First, the compound must be fully dissolved at the beginning of the titration. Second, the precipitation of the compound from the solution should occur close to the equivalent point of the titration curve. The amount of compound used in a CheqSol determination must be enough to achieve both events. […] All titrations started at pH 12.0, where the compounds were ionized and titrated to a low pH to force precipitation. […] At this point, the sample existed in a supersaturated or subsaturated state (i.e., chase equilibrium). The change between the subsaturated and supersaturated states was repeated several times to determine the intrinsic solubility by calculating the pH by interpolation between the two saturated states. The intrinsic solubility was calculated using the principles of mass and charge balance at the pH at which the equilibrium of the system was reached.
The CheqSol method not only provides the thermodynamic solubility of the neutral form (S0) of an ionizable compound but also the extent and time that a solution remains supersaturated before reaching S0. Both parameters are used to evaluate the supersaturation of a compound [10]. In this method, the experiment starts in conditions where the drug is completely ionized, and so, fully dissolved. Therefore, the concentration of the neutral species in solution is “zero”. The titration begins by titrating towards the pKa of the drug, to force precipitation as the neutral species starts to form. During this process, the concentration of the neutral species in solution increases to a maximum (Cmax) before the drug precipitates. When precipitation starts, it decreases dramatically to a much lower concentration to reach the intrinsic solubility. It must be noted that, before the drug precipitates, the solution is supersaturated. […] The supersaturation parameters can be obtained from the plot that monitors the concentration of neutral species in solution against time. […] The extent of the supersaturation corresponds to the maximum concentration of the neutral species in solution (Cmax) before the drug precipitates, and the duration of the supersaturation (ts) is the amount of time that the drug stays supersaturated until it reaches equilibrium solubility. In addition, the supersaturation ratio (Rs) can be calculated by dividing Cmax by the intrinsic solubility (S0).

The nature of series [2]: Ionization degree at the studied pH according to pKa. Format: physicochemical. On the procedure: Therefore, this pH value was also included in the study. […] When the solubility of the free drugs (without excipients) is evaluated, it can be observed that the intrinsic solubility is in agreement with their hydrophobicity (Table 1). […] Benzthiazide has an intermediate solubility. Moreover, as expected, the solubility of the compounds increases with the ionization degree. […] Here, a slight increase is observed.

Another series is described as follows: physchem. The settings on record: I = 0.15 M, 25 °C, standard deviation in parenthesis. Type of series: physicochemical. The procedure:
The pKa and logPo/w determinations were performed using the SiriusT3 titrator (Pion Inc.). The titrations were carried out from pH 12.0 to 2.0 due to the acidic nature of the drugs, at an ionic strength of 0.15 M (KCl), under an argon atmosphere and controlled temperature (25.0 ± 0.1 °C).
Octanol–water partition values, logPo/w, were obtained by potentiometric titrations in the presence of octanol at concentrations between 1.4 mM and 0.4 mM.

On the set-up of series [3]: method as in PMID 29481859. The note with it: I = 0.15 M, 25 °C; cited from earlier work.
Series [4] can be described thus: Shake-flask solubility with and without excipient (maleic/maleate buffers, HPLC quantification). The note with it: 25 °C. Type of series: physicochemical. The procedure: Prior to performing the solubility measurements, maleic/maleate buffers were prepared as follows: a stock solution containing 55 mM maleic acid, 126 mM sodium chloride, and 82 mM NaOH (conditions that mimic the fed state of the intestinal fluid) was made following the guidelines of Biorelevant. Final buffers at pH 2, 5.8, and 6.5 were prepared by the addition of HCl or NaOH to three different aliquots of the stock solution. […] The weighed amount must be enough to obtain saturated solutions, which depends on the sample and pH of the buffer used. The samples were shaken for 24 h at 25 ± 0.5 °C, with a pH control of the solutions after 4 h of shaking. […] After shaking for 24 h, the samples were allowed to equilibrate for an additional 24 h. Subsequently, the final pH was measured, and phase separation was carried out via centrifugation. […] The quantification of the supernatant was performed by liquid chromatography under isocratic conditions using methanol/10 mM phosphate buffer at pH 7.5 as the mobile phase. […] The flow rate was set at 1 mL/min, with an injection volume of 10 μL. […] If necessary, an appropriate dilution in water of the saturated supernatant was carried out to ensure its fit in the range of calibration. The effect of a given excipient on the solubility of a drug depends on both the nature of the compound and the nature of the excipient used. To evaluate if the enhancement in solubility is significant with respect to the solubility in water when the excipients are added, the criterion of twice the standard deviation (sd) was applied. […] This value was chosen because it corresponds to an average standard deviation obtained in our laboratory for shake-flask solubility determinations and it also agrees with typical sd reported in the literature.

A short description of series [5]: pKa determination, spectrometric UV-metric titration (SiriusT3). Format: physicochemical. The note with it: aqueous 0.15 M KCl solution; I = 0.15 M, 25 °C; standard deviation in parenthesis; read-out: pKa (second value). The procedure:
The pKa and logPo/w determinations were performed using the SiriusT3 titrator (Pion Inc.). […] For the analysis, 5 μL of a 10 mM DMSO sample stock solution, and 25 μL of a 15 mM potassium phosphate buffer, were added to 1.5 mL of a 0.15 M KCl solution. The UV-metric titration method used the UV absorbance changes in the aromatic groups close to the ionizable groups of the substance as a function of pH [30]. […] Results are the mean value from four triple titrations.

[6] abbreviates: CheqSol, 25 °C, standard deviation in parenthesis.
Setting [7] is: standard deviation in parenthesis.
[8] abbreviates: thermodynamic from solid, CheqSol, 25 °C, standard deviation in parenthesis, read-out: log S0 (intrinsic solubility) (converted).
Setting [9] is: pH 2, Captisol, 1:1 excipient:API weight ratio.
Setting [10] is: pH 2, Cavasol, 1:1 excipient:API weight ratio.
Setting [11] is: pH 2, Klucel, 1:1 excipient:API weight ratio.
Where [12] appears, read: pH 2, Kollidon, 1:1 excipient:API weight ratio.
[13] abbreviates: pH 2, S630, 1:1 excipient:API weight ratio.
The mark [14] stands for this setting: pH 5.8, Captisol, 1:1 excipient:API weight ratio.
Where [15] appears, read: pH 5.8, Cavasol, 1:1 excipient:API weight ratio.
Setting [16] is: pH 5.8, Klucel, 1:1 excipient:API weight ratio.
Where [17] appears, read: pH 5.8, Kollidon, 1:1 excipient:API weight ratio.
The mark [18] stands for this setting: pH 5.8, S630, 1:1 excipient:API weight ratio.
Setting [19] is: pH 6.5, Captisol, 1:1 excipient:API weight ratio.
Setting [20] is: pH 6.5, Cavasol, 1:1 excipient:API weight ratio.
Setting [21] is: pH 6.5, Klucel, 1:1 excipient:API weight ratio.
The mark [22] stands for this setting: pH 6.5, Kollidon, 1:1 excipient:API weight ratio.
The mark [23] stands for this setting: pH 6.5, S630, 1:1 excipient:API weight ratio.

For `NS(=O)(=O)c1cc2c(cc1Cl)N=C(CSCc1ccccc1)NS2(=O)=O` [Benzthiazide], the “pH range in which the drug precipitated from solution” value (“pH range” below) in series [1] is 6.6–8.7 pH. The time of supersaturation in series [1] (CheqSol) is on record as ~ 20 min. The “ts, time of supersaturation” value in series [1] (setting [6]) is 6 (1) min. Further, the “Rs, supersaturation ratio” value in series [1] (setting [7]) was 4 (1). In series [1] (setting [8]), the solubility was 11.2 µM (≈ 4.85 µg/mL). Further, the “Rs, fold higher” value in series [1] (in the presence of klucel and plasdone S630) worked out at 40 fold; in series [1] (in the presence of kollidon), 100 fold. In addition, the ionization degree entry in series [2] (pH 6.5, anionic form) is “around 40%”. For the same compound, the logP in “physchem” (octanol/water) turned out to be 1.89. Further, the “pKa (first value)” value in series [3] is given as 6.64. Besides, the “pKa (second value)” value in series [3] is 9.22. The SEXC/SAPI in series [4] (setting [9]) is given as 1.14; in series [4] (setting [10]), 0.97; in series [4] (setting [11]) it was 1.20; in series [4] (setting [12]), 1.29; in series [4] (setting [13]), 1.61; in series [4] (setting [14]), 1.09. For the same compound, the SEXC/SAPI in series [4] (setting [15]) is recorded as 0.83; in series [4] (setting [16]) it was 1.12; in series [4] (setting [17]) it was 1.21; in series [4] (setting [18]), 1.49; in series [4] (setting [19]), 1.29; in series [4] (setting [20]), 0.98. Moreover, the SEXC/SAPI in series [4] (setting [21]) was found to be 1.15; in series [4] (setting [22]) it was 1.24; in series [4] (setting [23]) it was 1.28.

Regarding `Cc1cc(NC(=O)C2=C(O)c3ccccc3S(=O)(=O)N2C)no1` [Isoxicam], the “pH range” value in series [1] was 3.7–6.7 pH. For the same compound, in series [1] (CheqSol, in the presence of klucel), the “time the initial metastable form is stabilized” value is reported as “around 16 min”. In addition, the time of supersaturation in series [1] (CheqSol) is reported as ~ 20 min. Besides, the “ts, time of supersaturation” value in series [1] (setting [6]) is listed as 11 (3) min; in series [1] (CheqSol, 25 °C, standard deviation in parenthesis, listed as isoxicam), 11 min. In addition, the “Rs, supersaturation ratio” value in series [1] (setting [7]) is 48 (4); in series [1] (standard deviation in parenthesis, listed as isoxicam) it was 48. The solubility in series [1] (CheqSol, Figure 2A, read-out: Intrinsic solubility) is 1.88 µM (≈ 0.63 µg/mL); in series [1] (setting [8]) it was 1.91 µM (≈ 0.639 µg/mL). In addition, the ionization degree result is “fully ionized” in series [2] (pH 5.8, anionic form); around 100% in series [2] (pH 5.8, anionic form, listed as isoxicam); around 100% in series [2] (pH 6.5, anionic form). Also, the logP in “physchem” (octanol/water) turned out to be 2.99. In addition, the SEXC/SAPI in series [4] (setting [9]) was found to be 1.48; in series [4] (setting [10]), 1.45; in series [4] (setting [11]), 1.50; in series [4] (setting [12]), 1.47; in series [4] (setting [13]), 1.81; in series [4] (setting [14]), 1.44. Besides, the SEXC/SAPI in series [4] (setting [15]) stood at 1.56; in series [4] (setting [16]), 1.93; in series [4] (setting [17]) it was 1.88; in series [4] (setting [18]), 1.96; in series [4] (setting [19]), 1.52; in series [4] (setting [20]), 1.61. For the same compound, the SEXC/SAPI in series [4] (setting [21]) was 1.84; in series [4] (setting [22]), 1.93; in series [4] (setting [23]) it was 1.73.

Turning to `CN1C(C(=O)Nc2ccccn2)=C(O)c2ccccc2S1(=O)=O` [Piroxicam], the “pH range” value in series [1] was 5.7–6.7 pH. Besides, in series [1] (CheqSol), the time of supersaturation was ~ 10 min. The “ts, time of supersaturation” value in series [1] (setting [6]) was 7 (1) min. The solubility in series [1] (setting [8]) is 21.4 µM (≈ 7.08 µg/mL). Further, the ionization degree result is reported as “around 40%” in series [2] (pH 2, cationic form, positively charged); 75% in series [2] (pH 5.8, anionic form); 96% in series [2] (pH 6.5, anionic form). Besides, the logP in “physchem” was determined as 1.71. In addition, the pKa in series [5] stood at 5.34.

These data come from article PMC12114812 (Pharmaceutics, 2025).
